Data taken from PubChem BioAssay (NCI).
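All cell lines were grown in 96-well plates and treated with compound for 48 hours. The concentration for full growth arrest is given as TGI.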

Key:
Experiment in all cases: inhibition of tumour cell growth, NCI panel, 48 h
A549 NSCLC = tested on: A549 NSCLC
KM12 colon = tested on: KM12 colon
NCI-H522 lung = tested on: NCI-H522 lung
NCI-H460 lung = tested on: NCI-H460 lung
IGROV1 ovarian = tested on: IGROV1 ovarian
SNB-19 CNS = tested on: SNB-19 CNS
EKVX NSCLC = tested on: EKVX NSCLC
MDA-MB-435 = tested on: MDA-MB-435
SF-295 CNS = tested on: SF-295 CNS
SK-MEL-5 melanoma = tested on: SK-MEL-5 melanoma
DU-145 prostate = tested on: DU-145 prostate
BT-549 breast = tested on: BT-549 breast
K-562 leukemia = tested on: K-562 leukemia
RPMI-8226 leukemia = tested on: RPMI-8226 leukemia
UACC-62 melanoma = tested on: UACC-62 melanoma
ACHN renal = tested on: ACHN renal
HOP-62 NSCLC = tested on: HOP-62 NSCLC
PC-3 prostate = tested on: PC-3 prostate
UO-31 renal = tested on: UO-31 renal
MALME-3M melanoma = tested on: MALME-3M melanoma
OVCAR-4 ovarian = tested on: OVCAR-4 ovarian
786-0 renal = tested on: 786-0 renal
MDA-N = tested on: MDA-N
CCRF-CEM leukemia = tested on: CCRF-CEM leukemia
HOP-92 NSCLC = tested on: HOP-92 NSCLC
SK-OV-3 ovarian = tested on: SK-OV-3 ovarian
RXF 393 renal = tested on: RXF 393 renal
OVCAR-5 ovarian = tested on: OVCAR-5 ovarian
SK-MEL-2 melanoma = tested on: SK-MEL-2 melanoma
NCI-H23 lung = tested on: NCI-H23 lung
MOLT-4 leukemia = tested on: MOLT-4 leukemia
HT29 colon = tested on: HT29 colon
HCT-116 colon = tested on: HCT-116 colon
MCF7 breast = tested on: MCF7 breast
SW-620 colon = tested on: SW-620 colon
SNB-75 CNS = tested on: SNB-75 CNS
M14 melanoma = tested on: M14 melanoma
A498 renal = tested on: A498 renal
HS 578T breast = tested on: HS 578T breast
COLO 205 colon = tested on: COLO 205 colon
SK-MEL-28 melanoma = tested on: SK-MEL-28 melanoma
SF-268 CNS = tested on: SF-268 CNS
NCI/ADR-RES ovarian = tested on: NCI/ADR-RES ovarian
TK-10 renal = tested on: TK-10 renal
OVCAR-8 ovarian = tested on: OVCAR-8 ovarian
T-47D breast = tested on: T-47D breast
UACC-257 melanoma = tested on: UACC-257 melanoma
SR leukemia = tested on: SR leukemia
U251 CNS = tested on: U251 CNS
CAKI-1 renal = tested on: CAKI-1 renal
HCC-2998 colon = tested on: HCC-2998 colon
OVCAR-3 ovarian = tested on: OVCAR-3 ovarian
HCT-15 colon = tested on: HCT-15 colon
MDA-MB-231 breast = tested on: MDA-MB-231 breast
NCI-H226 lung = tested on: NCI-H226 lung
SN12C renal = tested on: SN12C renal
HL-60(TB) leukemia = tested on: HL-60(TB) leukemia
SF-539 CNS = tested on: SF-539 CNS
LOX IMVI melanoma = tested on: LOX IMVI melanoma

Measured: TGI

COC(=O)C1CCC(=S)N1C(=O)OCc1ccccc1 (centres undefined)
> 100 µM: A549 NSCLC | KM12 colon | NCI-H522 lung | NCI-H460 lung | IGROV1 ovarian | SNB-19 CNS | EKVX NSCLC | MDA-MB-435 | SF-295 CNS | SK-MEL-5 melanoma | DU-145 prostate | BT-549 breast | K-562 leukemia | RPMI-8226 leukemia | UACC-62 melanoma | ACHN renal | HOP-62 NSCLC | PC-3 prostate | UO-31 renal | MALME-3M melanoma | OVCAR-4 ovarian | 786-0 renal | MDA-N | CCRF-CEM leukemia | HOP-92 NSCLC | SK-OV-3 ovarian | RXF 393 renal | OVCAR-5 ovarian | SK-MEL-2 melanoma | NCI-H23 lung | MOLT-4 leukemia | HT29 colon | HCT-116 colon | MCF7 breast | SW-620 colon | SNB-75 CNS | M14 melanoma | A498 renal | HS 578T breast | COLO 205 colon | SK-MEL-28 melanoma | SF-268 CNS | NCI/ADR-RES ovarian | TK-10 renal | OVCAR-8 ovarian | T-47D breast | UACC-257 melanoma | SR leukemia | U251 CNS | CAKI-1 renal | HCC-2998 colon | OVCAR-3 ovarian | HCT-15 colon | MDA-MB-231 breast

CCOC(=O)C(NC(=O)c1ccccc1)(Nc1ccc(S(=O)(=O)Nc2ncccn2)cc1)C(F)(F)F (centres undefined)
> 100 µM: A549 NSCLC | NCI-H226 lung | KM12 colon | NCI-H460 lung | IGROV1 ovarian | SNB-19 CNS | EKVX NSCLC | MDA-MB-435 | SF-295 CNS | SK-MEL-5 melanoma | DU-145 prostate | BT-549 breast | K-562 leukemia | RPMI-8226 leukemia | UACC-62 melanoma | ACHN renal | SN12C renal | HOP-62 NSCLC | PC-3 prostate | UO-31 renal | HL-60(TB) leukemia | MALME-3M melanoma | OVCAR-4 ovarian | 786-0 renal | MDA-N | CCRF-CEM leukemia | HOP-92 NSCLC | SK-OV-3 ovarian | RXF 393 renal | OVCAR-5 ovarian | SK-MEL-2 melanoma | NCI-H23 lung | MOLT-4 leukemia | HT29 colon | HCT-116 colon | MCF7 breast | SW-620 colon | SNB-75 CNS | SF-539 CNS | M14 melanoma | HS 578T breast | COLO 205 colon | SK-MEL-28 melanoma | SF-268 CNS | NCI/ADR-RES ovarian | TK-10 renal | OVCAR-8 ovarian | T-47D breast | UACC-257 melanoma | SR leukemia | U251 CNS | LOX IMVI melanoma | CAKI-1 renal | HCC-2998 colon | OVCAR-3 ovarian | HCT-15 colon | MDA-MB-231 breast

CCNC(=O)c1cc(Cl)ccc1NC(=O)C12CC3CC(CC(C3)C1)C2
76.1 µM: SK-MEL-5 melanoma
> 100 µM: A549 NSCLC | NCI-H226 lung | KM12 colon | NCI-H522 lung | NCI-H460 lung | IGROV1 ovarian | SNB-19 CNS | MDA-MB-435 | SF-295 CNS | BT-549 breast | K-562 leukemia | ACHN renal | SN12C renal | HOP-62 NSCLC | PC-3 prostate | HL-60(TB) leukemia | MALME-3M melanoma | OVCAR-4 ovarian | CCRF-CEM leukemia | HOP-92 NSCLC | OVCAR-5 ovarian | NCI-H23 lung | MOLT-4 leukemia | HCT-116 colon | MCF7 breast | SW-620 colon | SF-539 CNS | M14 melanoma | A498 renal | HS 578T breast | COLO 205 colon | SK-MEL-28 melanoma | SF-268 CNS | NCI/ADR-RES ovarian | TK-10 renal | OVCAR-8 ovarian | T-47D breast | UACC-257 melanoma | U251 CNS | LOX IMVI melanoma | CAKI-1 renal | OVCAR-3 ovarian | HCT-15 colon | MDA-MB-231 breast
88.9 µM: DU-145 prostate
60.6 µM: EKVX NSCLC
61 µM: 786-0 renal
70.9 µM: MDA-N
86.7 µM: RPMI-8226 leukemia
81.9 µM: SK-MEL-2 melanoma
37.3 µM: HT29 colon
56.4 µM: UO-31 renal
43.9 µM: RXF 393 renal

O=c1[nH]c2ccccc2c2nc3ccccc3n12
28.2 µM: NCI-H522 lung
> 100 µM: A549 NSCLC | KM12 colon | NCI-H460 lung | IGROV1 ovarian | SNB-19 CNS | EKVX NSCLC | MDA-MB-435 | SF-295 CNS | SK-MEL-5 melanoma | DU-145 prostate | BT-549 breast | K-562 leukemia | RPMI-8226 leukemia | UACC-62 melanoma | ACHN renal | SN12C renal | HOP-62 NSCLC | PC-3 prostate | UO-31 renal | HL-60(TB) leukemia | 786-0 renal | MDA-N | CCRF-CEM leukemia | HOP-92 NSCLC | RXF 393 renal | OVCAR-5 ovarian | NCI-H23 lung | MOLT-4 leukemia | HT29 colon | HCT-116 colon | MCF7 breast | SW-620 colon | M14 melanoma | A498 renal | HS 578T breast | COLO 205 colon | SF-268 CNS | NCI/ADR-RES ovarian | TK-10 renal | OVCAR-8 ovarian | T-47D breast | UACC-257 melanoma | U251 CNS | LOX IMVI melanoma | HCC-2998 colon | OVCAR-3 ovarian | HCT-15 colon | MDA-MB-231 breast
72.7 µM: MALME-3M melanoma
69.1 µM: SF-539 CNS
93.7 µM: CAKI-1 renal
14 µM: OVCAR-4 ovarian
49.7 µM: SK-OV-3 ovarian
